This passage reports IC50 results from patent US20250144223A1, “PROTEIN DEGRADATION COMPOUND BASED ON NAMPT TARGET PROTEIN AND APPLICATION THEREOF” (GLUETACS THERAPEUTICS (SHANGHAI) CO., LTD., priority 2021, published 2025).

As usually defined, the IC50 is the point on the concentration scale where inhibition reaches its midpoint. Lower therefore signals greater potency in that assay.

In this assay the test system is Jurkat. Put plainly: CellTiter-Glo Luminescent Cell Viability Assay, half inhibitory concentration (IC50) on tumor cell proliferation. The format is cell-based. The note with it: Homo sapiens, Jurkat cells, 72 h treatment. A digest of the protocol:
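Jurkat cells seeded at 20,000 cells/well in serum-containing RPMI1640, treated after 24 h with serially diluted compound for 72 h at 37 °C, 5% CO2. Viability read by CellTiter-Glo luminescence; IC50 calculated from growth-inhibition curves.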
(In general: Cellular ATP, detected with luciferase, serves as a proxy for viable cell number.)
The molecule `O=C(/C=C/c1cccnc1)NCCCCC1CCN(C(=O)c2ccc(N3CCN(C(=O)CCCCCCNc4cccc5c4CN(C4CCC(=O)NC4=O)C5=O)CC3)cc2)CC1` (stereo not shown) [SIAIS632018, (E)-N-(4-(1-(4-(4-(7-((2-(2,6-dioxopiperidin-3-yl)-1-oxoisoindolin-4-yl)amino)heptanoyl)piperazin-1-yl)benzoyl)piperidin-4-yl)butyl)-3-(pyridin-3-yl)acrylamide] had an IC50 of 55.5 nM. With `O=C(/C=C/c1cccnc1)NCCCCC1CCN(C(=O)c2ccc(N3CCN(C(=O)CSc4cccc5c4C(=O)N(C4CCC(=O)NC4=O)C5=O)CC3)cc2)CC1` (stereo not shown) [SIAIS632027, (E)-N-(4-(1-(4-(4-(2-((2-(2,6-dioxopiperidin-3-yl)-1,3-dioxoisoindolin-4-yl)thio)acetyl)piperazin-1-yl)benzoyl)piperidin-4-yl)butyl)-3-(pyridin-3-yl)acrylamide], the IC50 was 294 nM. This IC50 is about 5.3-fold higher than that of the molecule before. For `O=C(/C=C/c1cccnc1)NCCCCC1CCN(C(=O)c2ccc(N3CCN(C(=O)CCSc4cccc5c4C(=O)N(C4CCC(=O)NC4=O)C5=O)CC3)cc2)CC1` (stereo not shown) [SIAIS632028, (E)-N-(4-(1-(4-(4-(3-((2-(2,6-dioxopiperidin-3-yl)-1,3-dioxoisoindolin-4-yl)thio)propanoyl)piperazin-1-yl)benzoyl)piperidin-4-yl)butyl)-3-(pyridin-3-yl)acrylamide] the value was 105 nM. Take `O=C(/C=C/c1cccnc1)NCCCCC1CCN(C(=O)c2ccc(N3CCN(C(=O)CCCCSc4cccc5c4C(=O)N(C4CCC(=O)NC4=O)C5=O)CC3)cc2)CC1` (stereo not shown) [SIAIS632029, (E)-N-(4-(1-(4-(4-(5-((2-(2,6-dioxopiperidin-3-yl)-1,3-dioxoisoindolin-4-yl)thio)pentanoyl)piperazin-1-yl)benzoyl)piperidin-4-yl)butyl)-3-(pyridin-3-yl)acrylamide]: the IC50 came to 28.7 nM. To `O=C(/C=C/c1cccnc1)NCCCCC1CCN(C(=O)c2ccc(N3CCN(C(=O)CCCCCSc4cccc5c4C(=O)N(C4CCC(=O)NC4=O)C5=O)CC3)cc2)CC1` (stereo not shown) [SIAIS632030, (E)-N-(4-(1-(4-(4-(6-((2-(2,6-dioxopiperidin-3-yl)-1,3-dioxoisoindolin-4-yl)thio)hexanoyl)piperazin-1-yl)benzoyl)piperidin-4-yl)butyl)-3-(pyridin-3-yl)acrylamide] belongs 11 nM; to `O=C(/C=C/c1cccnc1)NCCCCC1CCN(C(=O)c2ccc(N3CCN(C(=O)CCCCCCSc4cccc5c4C(=O)N(C4CCC(=O)NC4=O)C5=O)CC3)cc2)CC1` (stereo not shown) [SIAIS632031, (E)-N-(4-(1-(4-(4-(7-((2-(2,6-dioxopiperidin-3-yl)-1,3-dioxoisoindolin-4-yl)thio)heptanoyl)piperazin-1-yl)benzoyl)piperidin-4-yl)butyl)-3-(pyridin-3-yl)acrylamide], 24.4 nM; to `O=C(/C=C/c1cccnc1)NCCCCC1CCN(C(=O)c2ccc(N3CCN(C(=O)CCCCCCCSc4cccc5c4C(=O)N(C4CCC(=O)NC4=O)C5=O)CC3)cc2)CC1` (stereo not shown) [SIAIS632032, (E)-N-(4-(1-(4-(4-(8-((2-(2,6-dioxopiperidin-3-yl)-1,3-dioxoisoindolin-4-yl)thio)octanoyl)piperazin-1-yl)benzoyl)piperidin-4-yl)butyl)-3-(pyridin-3-yl)acrylamide], 192 nM. Take `O=C(/C=C/c1cccnc1)NCCCCC1CCN(C(=O)c2ccc(N3CCN(C(=O)COc4cccc5c4C(=O)N(C4CCC(=O)NC4=O)C5=O)CC3)cc2)CC1` (stereo not shown) [SIAIS632033, (E)-N-(4-(1-(4-(4-(2-((2-(2,6-dioxopiperidin-3-yl)-1,3-dioxoisoindolin-4-yl)oxy)acetyl)piperazin-1-yl)benzoyl)piperidin-4-yl)butyl)-3-(pyridin-3-yl)acrylamide]: 78.7 nM corresponded to half-maximal inhibition (IC50). This IC50 is about 2.4-fold lower than that of the molecule before. For `O=C(/C=C/c1cccnc1)NCCCCC1CCN(C(=O)c2ccc(N3CCN(C(=O)CCCCOc4cccc5c4C(=O)N(C4CCC(=O)NC4=O)C5=O)CC3)cc2)CC1` (stereo not shown) [SIAIS632034, (E)-N-(4-(1-(4-(4-(5-((2-(2,6-dioxopiperidin-3-yl)-1,3-dioxoisoindolin-4-yl)oxy)pentanoyl)piperazin-1-yl)benzoyl)piperidin-4-yl)butyl)-3-(pyridin-3-yl)acrylamide] the value was 95.1 nM; for `O=C(/C=C/c1cccnc1)NCCCCC1CCN(C(=O)c2ccc(N3CCN(C(=O)CCCCCOc4cccc5c4C(=O)N(C4CCC(=O)NC4=O)C5=O)CC3)cc2)CC1` (stereo not shown) [SIAIS632035, (E)-N-(4-(1-(4-(4-(6-((2-(2,6-dioxopiperidin-3-yl)-1,3-dioxoisoindolin-4-yl)oxy)hexanoyl)piperazin-1-yl)benzoyl)piperidin-4-yl)butyl)-3-(pyridin-3-yl)acrylamide], 8.52 nM; for `O=C(/C=C/c1cccnc1)NCCCCC1CCN(C(=O)c2ccc(N3CCN(C(=O)CCCCCCOc4cccc5c4C(=O)N(C4CCC(=O)NC4=O)C5=O)CC3)cc2)CC1` (stereo not shown) [SIAIS632036, (E)-N-(4-(1-(4-(4-(7-((2-(2,6-dioxopiperidin-3-yl)-1,3-dioxoisoindolin-4-yl)oxy)heptanoyl)piperazin-1-yl)benzoyl)piperidin-4-yl)butyl)-3-(pyridin-3-yl)acrylamide], 29.3 nM. `O=C(/C=C/c1cccnc1)NCCCCC1CCN(C(=O)c2ccc(N3CCN(CCCCCC#Cc4cccc5c4CN(C4CCC(=O)NC4=O)C5=O)CC3)nc2)CC1` (stereo not shown) [SIAIS632039, (E)-N-(4-(1-(6-(4-(7-(2-(2,6-dioxopiperidin-3-yl)-1-oxoisoindolin-4-yl)hept-6-yn-1-yl)piperazin-1-yl)nicotinoyl)piperidin-4-yl)butyl)-3-(pyridin-3-yl)acrylamide] gave an IC50 of 2.75 nM. `O=C(/C=C/c1cccnc1)NCCCCC1CCN(C(=O)c2ccc(N3CCN(CCCCCCC#Cc4cccc5c4CN(C4CCC(=O)NC4=O)C5=O)CC3)nc2)CC1` (stereo not shown) [SIAIS632040, (E)-N-(4-(1-(6-(4-(8-(2-(2,6-dioxopiperidin-3-yl)-1-oxoisoindolin-4-yl)oct-7-yn-1-yl)piperazin-1-yl)nicotinoyl)piperidin-4-yl)butyl)-3-(pyridin-3-yl)acrylamide] came in with an IC50 of 5.67 nM. Compared with the last molecule, the IC50 is about 2.1-fold higher. For `O=C(/C=C/c1cccnc1)NCCCCC1CCN(C(=O)c2ccc(N3CCN(CCCCSc4cccc5c4CN(C4CCC(=O)NC4=O)C5=O)CC3)nc2)CC1` (stereo not shown) [SIAIS632041, (E)-N-(4-(1-(6-(4-(4-((2-(2,6-dioxopiperidin-3-yl)-1-oxoisoindolin-4-yl)thio)butyl)piperazin-1-yl)nicotinoyl)piperidin-4-yl)butyl)-3-(pyridin-3-yl)acrylamide] the value was 1.03 nM; for `Cc1ncsc1-c1ccc(CNC(=O)[C@@H]2C[C@@H](O)CN2C(=O)[C@@H](NC(=O)CCCCC(=O)N2CCN(C3CCN(c4ccc(C(=O)N5CCC(CCCCNC(=O)/C=C/c6cccnc6)CC5)nn4)CC3)CC2)C(C)(C)C)cc1` [SIAIS633063, (2S,4R)-1-((S)-3,3-dimethyl-2-(6-oxo-6-(4-(1-(6-(4-(4-((E)-3-(pyridin-3-yl)acrylamido)butyl)piperidine-1-carbonyl)pyridazin-3-yl)piperidin-4-yl)piperazin-1-yl)hexanamido)butanoyl)-4-hydroxy-N-(4-(4-methylthiazol-5-yl)benzyl)pyrrolidine-2-carboxamide], 255 nM. For `O=C(/C=C/c1cccnc1)NCCCCC1CCN(C(=O)c2ccc(N3CCC(N4CCN(CCCCCC#Cc5cccc6c5CN(C5CCC(=O)NC5=O)C6=O)CC4)CC3)nc2)CC1` (stereo not shown) [SIAIS633093, (E)-N-(4-(1-(6-(4-(4-(7-(2-(2,6-dioxopiperidin-3-yl)-1-oxoisoindolin-4-yl)hept-6-yn-1-yl)piperazin-1-yl)piperidin-1-yl)nicotinoyl)piperidin-4-yl)butyl)-3-(pyridin-3-yl)acrylamide] the value was 15.8 nM. With `O=C(/C=C/c1cccnc1)NCCCCC1CCN(C(=O)c2ccc(N3CCC(N4CCN(CCCCCCC#Cc5cccc6c5CN(C5CCC(=O)NC5=O)C6=O)CC4)CC3)nc2)CC1` (stereo not shown) [SIAIS633094, (E)-N-(4-(1-(6-(4-(4-(8-(2-(2,6-dioxopiperidin-3-yl)-1-oxoisoindolin-4-yl)oct-7-yn-1-yl)piperazin-1-yl)piperidin-1-yl)nicotinoyl)piperidin-4-yl)butyl)-3-(pyridin-3-yl)acrylamide], the IC50 amounted to 6.18 nM.

Molecule `O=C(/C=C/c1cccnc1)NCCCCC1CCN(C(=O)c2ccc(N3CCN(CCCCCCOc4cccc5c4CN(C4CCC(=O)NC4=O)C5=O)CC3)cc2)CC1` (stereo not shown) [SIAIS633097, (E)-N-(4-(1-(4-(4-(6-((2-(2,6-dioxopiperidin-3-yl)-1-oxoisoindolin-4-yl)oxy)hexyl)piperazin-1-yl)benzoyl)piperidin-4-yl)butyl)-3-(pyridin-3-yl)acrylamide] showed an IC50 of 79 nM. This IC50 is about 13-fold higher than that of the molecule before. To `O=C(/C=C/c1cccnc1)NCCCCC1CCN(C(=O)c2ccc(N3CCN(CCCCCCCOc4cccc5c4CN(C4CCC(=O)NC4=O)C5=O)CC3)cc2)CC1` (stereo not shown) [SIAIS633098, (E)-N-(4-(1-(4-(4-(7-((2-(2,6-dioxopiperidin-3-yl)-1-oxoisoindolin-4-yl)oxy)heptyl)piperazin-1-yl)benzoyl)piperidin-4-yl)butyl)-3-(pyridin-3-yl)acrylamide] belongs 33.9 nM.
